Measured values reported in PubChem BioAssay AID256 (DTP/NCI, 2004).
Where “and” joins values, the source holds several entries; their conditions need not be identical. Equal entries are not always repeated. Inconclusive results and toxic doses are left out. How the source made its calls: active means survival T/C of 150% or more; inactive means T/C below 125% in these data.

Tested on: CD2F1 mice, L1210 leukemia ip, survival T/C
Experiment: NCI In Vivo Anticancer Drug Screen. Data for tumor model L1210 Leukemia (intraperitoneal) in CD2F1 (CDF1) mice
Settings: higher = longer survival
Outline: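 Antitumor effect is scored in animals hosting a serially transplanted tumor. Values compare compound-dosed animals against vehicle-only controls as a simple quotient.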

[1] = endpoint: mean survival time, dose: 100.0 mg/kg/injection, schedule: Q04DX003 (ip), vehicle: saline with Tween-80
[2] = endpoint: mean survival time, dose: 200.0 mg/kg/injection, schedule: Q04DX003 (ip), vehicle: saline with Tween-80
[3] = endpoint: mean survival time, dose: 400.0 mg/kg/injection, schedule: Q04DX003 (ip), vehicle: saline with Tween-80
[4] = endpoint: mean survival time, dose: 100.0 mg/kg/injection, schedule: Q01DX009 (ip), vehicle: saline with Tween-80
[5] = endpoint: mean survival time, dose: 200.0 mg/kg/injection, schedule: Q01DX009 (ip), vehicle: saline with Tween-80
[6] = endpoint: mean survival time, dose: 100.0 mg/kg/injection, schedule: Q04DX003 (ip), vehicle: saline sonified
[7] = endpoint: mean survival time, dose: 75.0 mg/kg/injection, schedule: Q01DX001 (ip), vehicle: saline
[8] = endpoint: mean survival time, dose: 150.0 mg/kg/injection, schedule: Q01DX001 (ip), vehicle: saline
[9] = endpoint: mean survival time, dose: 300.0 mg/kg/injection, schedule: Q01DX001 (ip), vehicle: saline
[10] = endpoint: mean survival time, dose: 100.0 mg/kg/injection, schedule: Q04DX002 (ip), vehicle: saline with Tween-80
[11] = endpoint: mean survival time, dose: 200.0 mg/kg/injection, schedule: Q04DX002 (ip), vehicle: saline with Tween-80
[12] = endpoint: mean survival time, dose: 400.0 mg/kg/injection, schedule: Q04DX002 (ip), vehicle: saline with Tween-80
[13] = endpoint: mean survival time, dose: 400.0 mg/kg/injection, schedule: Q01DX009 (ip), vehicle: saline with Tween-80
[14] = endpoint: mean survival time, dose: 50.0 mg/kg/injection, schedule: Q01DX009 (ip), vehicle: saline with Tween-80
[15] = endpoint: mean survival time, dose: 25.0 mg/kg/injection, schedule: Q04DX003 (ip), vehicle: saline with Tween-80

Measured: T/C

CNC(=O)N(C)c1ccccc1
inactive: endpoint: mean survival time, dose: 100.0 mg/kg/injection, schedule: Q04DX002 (ip), vehicle: saline 101 % of control | endpoint: mean survival time, dose: 200.0 mg/kg/injection, schedule: Q04DX002 (ip), vehicle: saline 101 % of control | endpoint: mean survival time, dose: 400.0 mg/kg/injection, schedule: Q04DX002 (ip), vehicle: saline 101 % of control

COc1ccc(Cc2ccc(O)cc2)cc1
inactive: endpoint: mean survival time, dose: 100.0 mg/kg/injection, schedule: Q01DX009 (ip), vehicle: other 101 % of control | endpoint: mean survival time, dose: 200.0 mg/kg/injection, schedule: Q01DX009 (ip), vehicle: other 101 % of control | endpoint: mean survival time, dose: 400.0 mg/kg/injection, schedule: Q01DX009 (ip), vehicle: other 104 % of control

CC(=O)On1nnc2ccccc2c1=O
inactive: endpoint: mean survival time, dose: 12.5 mg/kg/injection, schedule: Q01DX001 (ip), vehicle: distilled water + Tween-80 101 % of control | endpoint: mean survival time, dose: 25.0 mg/kg/injection, schedule: Q01DX001 (ip), vehicle: distilled water + Tween-80 100 % of control | endpoint: mean survival time, dose: 50.0 mg/kg/injection, schedule: Q01DX001 (ip), vehicle: distilled water + Tween-80 95 % of control | endpoint: mean survival time, dose: 100.0 mg/kg/injection, schedule: Q01DX001 (ip), vehicle: distilled water + Tween-80 90 % of control

Cc1ccccc1NC(=O)C1CCC(C)(C(=O)O)C1(C)C (stereo not given)
inactive: [1] 98 % of control | [2] 93 % of control | [3] 96 % of control

C/C(=N/O)c1cccc([N+](=O)[O-])c1
inactive: [4] 95 % of control | [1] 104 % of control | [5] 98 % of control | [2] 95 % of control | [3] 103 % of control

CC(C)(C)C(=O)CC(=O)C(C)(C)C.CC(C)(C)C(=O)CC(=O)C(C)(C)C.CC(C)(C)C(=O)CC(=O)C(C)(C)C.[La]
inactive: [1] 94 % of control | [2] 101 % of control | [3] 97 % of control

COc1cc2c(cc1OC)-c1cc3cc(OC)c(OC)cc3c(C)[n+]1CC2 (tested in a mixture with another compound)
inactive: [6] 103 % of control

COC(=O)C1C=C2c3cccc4[nH]cc(c34)CC2N(C)C1 (stereo not given)
inactive: [6] 97 % of control | endpoint: mean survival time, dose: 200.0 mg/kg/injection, schedule: Q04DX003 (ip), vehicle: saline sonified 97 % of control | endpoint: mean survival time, dose: 400.0 mg/kg/injection, schedule: Q04DX003 (ip), vehicle: saline sonified 109 % of control

Cc1ccc(-[n+]2nscc2O)cc1
inactive: [7] 96 % of control | [8] 97 % of control | [9] 92 % of control

COc1ccc(COC(=O)Nc2ccc(Cl)cc2)cc1
inactive: endpoint: mean survival time, dose: 50.0 mg/kg/injection, schedule: Q04DX002 (ip), vehicle: saline with Tween-80 104 % of control | [10] 100 % of control | [11] 92 % of control

CC1=CCC(=O)O1
inactive: [10] 102 % of control | [11] 98 % of control | [12] 102 % of control

C[CH2][Pb]([Cl])([CH2]C)[CH2]C
inactive: endpoint: mean survival time, dose: 1.56 mg/kg/injection, schedule: Q01DX009 (ip), vehicle: other 103 % of control | endpoint: mean survival time, dose: 3.12 mg/kg/injection, schedule: Q01DX009 (ip), vehicle: other 100 % of control | endpoint: mean survival time, dose: 6.25 mg/kg/injection, schedule: Q01DX009 (ip), vehicle: other 90 % of control

C=C[C](=C)[Pb]([CH2]C)([CH2]C)[CH2]C
inactive: [7] 100 % of control | [8] 97 % of control | [9] 107 % of control

Cc1ccc(S(=O)(=O)Oc2ccc(Cl)cc2)cc1
inactive: [4] 101 % of control | [5] 98 % of control | [13] 98 % of control

CCOC(=O)/C(C#N)=C\c1cccs1
inactive: endpoint: mean survival time, dose: 25.0 mg/kg/injection, schedule: Q04DX003 (ip), vehicle: Klucel (hydroxypropylcellulose) (HPC) 96 % of control | endpoint: mean survival time, dose: 50.0 mg/kg/injection, schedule: Q04DX003 (ip), vehicle: Klucel (hydroxypropylcellulose) (HPC) 96 % of control | endpoint: mean survival time, dose: 100.0 mg/kg/injection, schedule: Q04DX003 (ip), vehicle: Klucel (hydroxypropylcellulose) (HPC) 107 % of control

COC(=O)C(CCCCN=Cc1ccccc1O)N=Cc1ccccc1O.[Ni] (stereo not given)
inactive: endpoint: mean survival time, dose: 12.5 mg/kg/injection, schedule: Q01DX009 (ip), vehicle: saline with Tween-80 96 % of control | endpoint: mean survival time, dose: 25.0 mg/kg/injection, schedule: Q01DX009 (ip), vehicle: saline with Tween-80 96 % of control | [14] 88 % of control and 94 % of control | [4] 93 % of control

O=[N+]([O-])c1ccc2c(c1[N+](=O)[O-])CCCC2
inactive: endpoint: mean survival time, dose: 100.0 mg/kg/injection, schedule: Q01DX001 (ip), vehicle: saline with Tween-80 104 % of control | endpoint: mean survival time, dose: 200.0 mg/kg/injection, schedule: Q01DX001 (ip), vehicle: saline with Tween-80 107 % of control | endpoint: mean survival time, dose: 400.0 mg/kg/injection, schedule: Q01DX001 (ip), vehicle: saline with Tween-80 93 % of control

COCCOCCOCCOCCOCCOCCOCCOC(=O)Nc1ccc(C)c(NC(=O)OCCOCCOCCOCCOCCOCCOCCOC)c1
inactive: endpoint: mean survival time, dose: 100.0 mg/kg/injection, schedule: Q01DX009 (ip), vehicle: saline sonified 96 % of control | endpoint: mean survival time, dose: 100.0 mg/kg/injection, schedule: Q04DX003 (ip), vehicle: saline 96 % of control | endpoint: mean survival time, dose: 200.0 mg/kg/injection, schedule: Q01DX009 (ip), vehicle: saline sonified 96 % of control | endpoint: mean survival time, dose: 200.0 mg/kg/injection, schedule: Q04DX003 (ip), vehicle: saline 100 % of control | endpoint: mean survival time, dose: 400.0 mg/kg/injection, schedule: Q01DX009 (ip), vehicle: saline sonified 93 % of control | endpoint: mean survival time, dose: 400.0 mg/kg/injection, schedule: Q04DX003 (ip), vehicle: saline 100 % of control

NCC1OC(OC2C(N)CC(N)C(O)C2OC2OC(CO)C(O)C2O)C(N)C(O)C1O (stereo not given)
inactive: endpoint: mean survival time, dose: 75.0 mg/kg/injection, schedule: Q04DX003 (ip), vehicle: saline 96 % of control | endpoint: mean survival time, dose: 150.0 mg/kg/injection, schedule: Q04DX003 (ip), vehicle: saline 102 % of control | endpoint: mean survival time, dose: 300.0 mg/kg/injection, schedule: Q04DX003 (ip), vehicle: saline 100 % of control

CSc1nc(SC)c2cnn(C3OC(CO)C(O)C3O)c2n1 (stereo not given)
inactive: endpoint: median survival time, dose: 3.12 mg/kg/injection, schedule: Q01DX005 (ip), vehicle: saline with Tween-80 95 % of control | endpoint: median survival time, dose: 6.25 mg/kg/injection, schedule: Q01DX005 (ip), vehicle: saline with Tween-80 100 % of control | endpoint: median survival time, dose: 12.5 mg/kg/injection, schedule: Q01DX005 (ip), vehicle: saline with Tween-80 102 % of control and 103 % of control | endpoint: median survival time, dose: 25.0 mg/kg/injection, schedule: Q01DX005 (ip), vehicle: saline with Tween-80 102 % of control and 101 % of control and 97 % of control | endpoint: median survival time, dose: 50.0 mg/kg/injection, schedule: Q01DX005 (ip), vehicle: saline with Tween-80 102 % of control and 101 % of control and 97 % of control | endpoint: median survival time, dose: 100.0 mg/kg/injection, schedule: Q01DX005 (ip), vehicle: saline with Tween-80 102 % of control and 95 % of control | endpoint: median survival time, dose: 200.0 mg/kg/injection, schedule: Q01DX005 (ip), vehicle: saline with Tween-80 93 % of control and 95 % of control

O=[N+]([O-])c1ccccc1C[P+](c1ccccc1)(c1ccccc1)c1ccccc1
inactive: [15] 98 % of control | endpoint: mean survival time, dose: 50.0 mg/kg/injection, schedule: Q04DX003 (ip), vehicle: saline with Tween-80 114 % of control

CC(=O)OC(N=Nc1ccccc1)(c1ccccc1)c1ccccc1
inactive: [1] 98 % of control | [2] 92 % of control | [3] 93 % of control

CC(Br)C(=O)NCC(=O)O (stereo not given)
inactive: [1] 92 % of control | [2] 91 % of control | [3] 95 % of control

Cc1c(Br)c(=O)[nH]c2ccccc12
inactive: [4] 96 % of control | [1] 101 % of control | [5] 96 % of control | [2] 98 % of control | [13] 94 % of control | [3] 101 % of control

CCOC(=O)C1=C2CC(C)(C)CCC2(C)CCC1=O (stereo not given)
inactive: [10] 100 % of control | [11] 100 % of control | [12] 88 % of control

COc1ccc2c[n+](C)c3c4cc(OC)c(OC)cc4ccc3c2c1
inactive: [15] 96 % of control

COC1OC2COCOC2C(OS(=O)(=O)c2ccc(C)cc2)C1OS(=O)(=O)c1ccc(C)cc1 (stereo not given)
inactive: [14] 103 % of control | [4] 97 % of control | [5] 97 % of control
